In patent publication US7879814B2, “Methods and therapeutic compositions in the treatment of advanced cancer” (priority 2003, dated 2011):
Read-outs that look alike come from different tables or passages of the source.

How the values were obtained:
[1] = test system: patients with advanced malignancies (solid tumors); experiment: Phase I study of ATP by 8 hour intravenous infusion once weekly, out-patient (DMS #D0005): safety, tolerability, clinical efficacy; format: in vivo, human
Method: Adenosine 5′-triphosphate (ATP) is provided as a sterile solution in single use vials. […] Storage of the clinical solutions is at controlled refrigerated temperature (2-8° C.). […] The concentration of the final sterile solution is 8 mg/ml and is administered by continuous intravenous infusions using an Ivac or similar infusion device through venous access in a peripheral vein. If venous access is a problem, either a Hickman catheter or its equivalent or an Infusaport or its equivalent, are inserted to provide vascular access. […] All follow-up care is administered in hospital outpatient department or at the patient's home or clinic.
Title of the Study: “A Phase I Study of the Safety and Pharmacokinetics of Adenosine 5′-Triphosphate (ATP) When Administered by Intravenous Infusion on a Multiple Weekly Dose Schedule to Patients with Advanced Malignancies (Solid Tumors)”.
Nine qualified patients have been enrolled in the study as of Jan. 1, 2002; seven of which received the first 3 cycles of the study drug and are therefore evaluable for the primary endpoints. Two of the seven evaluable patients had advanced prostate cancer with bone metastases and one each had advanced mesothelioma, metastatic breast cancer, metastatic melanoma, metastatic colon cancer and renal cell carcinoma.

[2] = test system: stage IIIB/IV non-small cell lung cancer patients; settings: cited from earlier work
[3] = test system: refractory stage IIIB/IV non-small cell lung cancer patients; settings: cited from earlier work
[4] = cited from earlier work; for whole blood ATP concentration higher than pretreatment value (average): 24 hours of infusion
[5] = Pharmacokinetics of ATP on weeks (cycles) 1, 3 and 8 of the Phase I study; format: in vivo, human
Description: Two of the seven evaluable patients had advanced prostate cancer with bone metastases and one each had advanced mesothelioma, metastatic breast cancer, metastatic melanoma, metastatic colon cancer and renal cell carcinoma.

[6] = test system: men with advanced, non-resectable cancer; settings: cited from earlier work
[7] = week 1 pre-dose to week 13 follow-up
[8] = 50 or 65 mcg/kg/min, 96 hours once every 4 weeks, 15 patients
[9] = 50 or 65 mcg/kg/min, 96 hours once every 4 weeks
[10] = 30-hours infusions, 20 up to 75 mcg/kg/min
[11] = 50, 75 or 100 mcg/kg/min, 96 hr infusion once every 4 weeks

## Nc1ncnc2c1ncn2[C@@H]1O[C@H](COP(=O)(O)OP(=O)(O)OP(=O)(O)O)[C@@H](O)[C@H]1O [ATP, Adenosine 5′-triphosphate]
[1]; 8 hour iv infusion once weekly, up to 100 mcg/kg/min
  grade 2 cardiac ischemia or grades 3 or 4 toxicity: No grade 2 cardiac ischemia or grades 3 or 4 toxicity have been observed
[1]; all patients, screening to week 10 (follow-up), return to screening baseline at week 13
  appetite loss: Decreases
[1]; all patients, week 1 (pre-dose) to week 13 (follow-up)
  SGOT, SGPT and serum LDH: Consistent decreases
[1]; continuous 8 hours iv infusion once weekly for eight weeks, seven of nine patients (the seven evaluable)
  maximum allowable dose tolerated: 100 µg/kg/min
[1]; during the study, several patients
  appetite and energy (subjective patient comments): improved appetite and energy
[1]; patient 506
  tolerability in terminal patients: well tolerated
[1]; screening (week <1) to follow-up (week 10), decline at week 13 follow-up
  Global Health Status of the QOL EORTC QLQ-C30: Increases
[1]; screening (week <1) to week 8 (last infusion cycle)
  Skeletal Muscle Strength (voluntary): Small increases
[1]; [7]
  Kamofsky Performance Status: Small increases
  body weight: Stabilization
[2]; [8]
  patients reporting severe (grade 3) adverse effects: Six
  patients with life-threatening (grade 4) dyspnea: two
[2]; [9]
  disease status after treatment: the majority of patients exhibited stable disease
  hematologic, renal, hepatic, or gastrointestinal toxicity: No significant
  tumor shrinking: no significant tumor shrinking was observed
[2]; non-small cell lung cancer patients
  effects on weight gain, performance status and overall survival: beneficial effects
[3]; [10]
  adverse events of grade 1 (mild): 81
  adverse events of grade 2 (moderate): 5
  adverse events of grade 3 (severe): none
  adverse events of grade 4 (life threatening): 5
[3]; 30-hours infusions
  electrocardiograms in patients with chest discomfort: did not exhibit changes suggestive of myocardial ischemia
[3]; ATP plus best supportive care vs best supportive care only
  effects on body weight, voluntary muscle strength and Quality of Life domains: beneficial effects
[3]; after lowering the rate of ATP infusion
  resolution of side effects: resolved within minutes
[4]; 50 mcg/kg/min
  whole blood ATP concentration higher than pretreatment value (average): 63%
[4]; 75 mcg/kg/min
  whole blood ATP concentration higher than pretreatment value (average): 67%
[4]; 100 mcg/kg/min
  whole blood ATP concentration higher than pretreatment value (average): 113%
[4]; interval between 24 and 96 hours of the infusion
  course of blood ATP concentrations: relatively constant or slightly declined
[5]; at 24 hours
  total blood ATP pools after infusion: decline to baseline (time 0)
[5]; time 0 to 8 hours
  average increases in Initial ATP Release Rates (from Red Blood Cells): 200-400%
[5]; time 0 to 8 hours (end of the infusions)
  increases in total blood ATP pools (red blood cell pools): 70-90%
[6]; [11]
  share of all adverse events that were grade 1 or 2 (mild or moderate): 79%
  share of all adverse events that were grade 3 or 4 (severe or life-threatening): 21%
[6]; 96-hours infusions, patients with advanced cancers
  maximum tolerated dose: 50 µg/kg/min
[6]; 96 hr infusions
  events of grade 3 anxiety: one
  events of grade 3 headache: 1 event
  grade 3 or 4 events of chest pain: 5 events
  grade 3 or 4 events of dizziness: 1 event
  grade 3 or 4 events of dyspnea: 6 events
  grade 3 or 4 events of hypotension: 1 event
  grade 3 or 4 events of hypoxia: 2 events
  grade 3 or 4 events of nausia/emesis: 2 events
